Source: patent publication US11207325B2, “Triazolopyrimidine compounds and uses thereof” (Novartis AG, priority 2014, dated 2021)

Test system: H3K27 methylation in G401 cell
Assay: ELISA (H3K27 methylation) assay
Assay type: cell-based
Details: Homo sapiens, G-401; ELISA Qualified assay (H3K27 methylation); read-out: (c) IC50 (μM), ELISA Qualified
Excerpt: ELISA (H3K27 Methylation) Assay

SMILES | IC50 [µM]
c1cc(CNc2ncc(-c3ccc(N4CCSCC4)nc3)c3nncn23)c2c(c1)OCC2 [Example 81, N-((2,3-dihydrobenzofuran-4-yl)methyl)-8-(6-thiomorpholinopyridin-3-yl)-[1,2,4]triazolo[4,3-c]pyrimidin-5-amine] | 0.155
Cc1cc(C#N)ccc1-c1cnc(NCc2c(F)ccc3c2CCO3)n2cnnc12 [Example 178, 4-(5-(((5-fluoro-2,3-dihydrobenzofuran-4-yl)methyl)amino)-[1,2,4]triazolo[4,3-c]pyrimidin-8-yl)-3-methylbenzonitrile] | 0.0114
CN(C)CCc1ccc(-c2cnc(NCc3cccc4c3CCO4)n3cnnc23)cn1 [Example 53, N-((2,3-dihydrobenzofuran-4-yl)methyl)-8-(6-(2-(dimethylamino)ethyl)pyridin-3-yl)-[1,2,4]triazolo[4,3-c]pyrimidin-5-amine] | 0.141
CC(=O)N1CCN(CCc2ccc(-c3cnc(NCc4cccc5c4CCO5)n4cnnc34)cn2)CC1 [Example 108, 1-(4-(2-(5-(5-(((2,3-dihydrobenzofuran-4-yl)methyl)amino)-[1,2,4]triazolo[4,3-c]pyrimidin-8-yl)pyridin-2-yl)ethyl)piperazin-1-yl)ethanone] | 0.173
Clc1ccccc1-c1cnc(NCc2cccc3c2CCO3)n2cnnc12 [Example 32, 8-(2-chlorophenyl)-N-((2,3-dihydrobenzofuran-4-yl)methyl)-[1,2,4]triazolo[4,3-c]pyrimidin-5-amine] | 0.115
O=CN1CCCN(c2ccc(-c3cnc(NCc4cccc5c4CCO5)n4cnnc34)cn2)CC1 [Example 113, 4-(5-(5-(((2,3-dihydrobenzofuran-4-yl)methyl)amino)-[1,2,4]triazolo[4,3-c]pyrimidin-8-yl)pyridin-2-yl)-1,4-diazepane-1-carbaldehyde] | 0.72
CN1CCN(C(=O)c2ccc(-c3cnc(NCc4c(F)ccc5c4CCO5)n4cnnc34)cc2)CC1 [Example 72, (4-(5-(((5-fluoro-2,3-dihydrobenzofuran-4-yl)methyl)amino)-[1,2,4]triazolo[4,3-c]pyrimidin-8-yl)phenyl)(4-methylpiperazin-1-yl)methanone] | 0.0097
Cc1c(-c2cnc(NCc3c(F)ccc4c3CCO4)n3cnnc23)ccc[n+]1[O-] [Example 204, 3-(5-(((5-fluoro-2,3-dihydrobenzofuran-4-yl)methyl)amino)-[1,2,4]triazolo[4,3-c]pyrimidin-8-yl)-2-methylpyridine 1-oxide] | 0.0103
Fc1ccc2c(c1CNc1ncc(-c3ccc(Cl)cc3Cl)c3nncn13)CCO2 [Example 146, 8-(2,4-dichlorophenyl)-N-((5-fluoro-2,3-dihydrobenzofuran-4-yl)methyl)-[1,2,4]triazolo[4,3-c]pyrimidin-5-amine] | 0.0744
CC(=O)NCc1ccc(-c2cnc(NCc3c(F)ccc4c3CCO4)n3cnnc23)cn1 [Example 171, N-((5-(5-(((5-fluoro-2,3-dihydrobenzofuran-4-yl)methyl)amino)-[1,2,4]triazolo[4,3-c]pyrimidin-8-yl)pyridin-2-yl)methyl)acetamide] | 0.0265
Fc1ccc2c(c1CNc1ncc(-c3cnccc3C(F)(F)F)c3nncn13)CCO2 [Example 136, N-((5-fluoro-2,3-dihydrobenzofuran-4-yl)methyl)-8-(4-(trifluoromethyl)pyridin-3-yl)-[1,2,4]triazolo[4,3-c]pyrimidin-5-amine] | 0.0804
CN(C)C(=O)c1ccc(-c2cnc(NCc3cccc4c3CCO4)n3cnnc23)cc1 [Example 42, 4-(5-(((2,3-dihydrobenzofuran-4-yl)methyl)amino)-[1,2,4]triazolo[4,3-c]pyrimidin-8-yl)-N,N-dimethylbenzamide] | 0.22
COc1ncc(-c2cnc(NCc3c(F)ccc4c3CCO4)n3cnnc23)cn1 [Example 174, N-((5-fluoro-2,3-dihydrobenzofuran-4-yl)methyl)-8-(2-methoxypyrimidin-5-yl)-[1,2,4]triazolo[4,3-c]pyrimidin-5-amine] | 0.0042
O=C1CN(c2ccc(-c3cnc(NCc4cccc5c4CCO5)n4cnnc34)cn2)CCN1 [Example 104, 4-(5-(5-(((2,3-dihydrobenzofuran-4-yl)methyl)amino)-[1,2,4]triazolo[4,3-c]pyrimidin-8-yl)pyridin-2-yl)piperazin-2-one] | 2.33
Cc1nc(N)ccc1-c1cnc(NCc2c(F)ccc3c2CCO3)n2cnnc12 [Example 156, 8-(6-amino-2-methylpyridin-3-yl)-N-((5-fluoro-2,3-dihydrobenzofuran-4-yl)methyl)-[1,2,4]triazolo[4,3-c]pyrimidin-5-amine] | 0.0261
O=C1CN(CCc2ccc(-c3cnc(NCc4cccc5c4CCO5)n4cnnc34)cn2)CCN1 [Example 109, 4-(2-(5-(5-(((2,3-dihydrobenzofuran-4-yl)methyl)amino)-[1,2,4]triazolo[4,3-c]pyrimidin-8-yl)pyridin-2-yl)ethyl)piperazin-2-one] | 1.21
c1cncc(-c2cnc(NCc3cccc4c3CCO4)n3cnnc23)c1 [Example 16, N-((2,3-dihydrobenzofuran-4-yl)methyl)-8-(pyridin-3-yl)-[1,2,4]triazolo[4,3-c]pyrimidin-5-amine] | 0.0604

SMILES | IC50 [µM]
c1cc(CNc2ncc(-c3cnn(C4CC4)c3)c3nncn23)c2c(c1)OCC2 [Example 149, 8-(1-cyclopropyl-1H-pyrazol-4-yl)-N-((2,3-dihydrobenzofuran-4-yl)methyl)-[1,2,4]triazolo[4,3-c]pyrimidin-5-amine] | 0.22
CN1CCN(c2ccc(-c3cnc(NCc4cccc5c4CCO5)n4cnnc34)cn2)CC1 [Example 20, N-((2,3-dihydrobenzofuran-4-yl)methyl)-8-(6-(4-methylpiperazin-1-yl)pyridin-3-yl)-[1,2,4]triazolo[4,3-c]pyrimidin-5-amine] | 0.0783
Cc1nn(CCO)cc1-c1cnc(NCc2c(F)ccc3c2CCO3)n2cnnc12 [Example 190, 2-(4-(5-(((5-fluoro-2,3-dihydrobenzofuran-4-yl)methyl)amino)-[1,2,4]triazolo[4,3-c]pyrimidin-8-yl)-3-methyl-1H-pyrazol-1-yl)ethanol] | 0.0025
FC(F)c1ccc(-c2cnc(NCc3cccc4c3CCO4)n3cnnc23)cn1 [Example 154, 8-(6-(difluoromethyl)pyridin-3-yl)-N-((2,3-dihydrobenzofuran-4-yl)methyl)-[1,2,4]triazolo[4,3-c]pyrimidin-5-amine] | 0.0968
c1cc(CNc2ncc(-c3ccc(C4CC4)nc3)c3nncn23)c2c(c1)OCC2 [Example 65, 8-(6-cyclopropylpyridin-3-yl)-N-((2,3-dihydrobenzofuran-4-yl)methyl)-[1,2,4]triazolo[4,3-c]pyrimidin-5-amine] | 0.11
Cc1ncncc1-c1cnc(NCc2c(F)ccc3c2CCO3)n2cnnc12 [Example 176, N-((5-fluoro-2,3-dihydrobenzofuran-4-yl)methyl)-8-(4-methylpyrimidin-5-yl)-[1,2,4]triazolo[4,3-c]pyrimidin-5-amine] | 0.0046
Nc1ccc(-c2cnc(NCc3cccc4c3CCO4)n3cnnc23)cn1 [Example 48, 8-(6-aminopyridin-3-yl)-N-((2,3-dihydrobenzofuran-4-yl)methyl)-[1,2,4]triazolo[4,3-c]pyrimidin-5-amine] | 0.261
Cc1nc(CN(C)C)ccc1-c1cnc(NCc2c(F)ccc3c2CCO3)n2cnnc12 [Example 223] | 0.0014
CN(C)c1ccc(-c2cnc(NCc3cccc4c3CCO4)n3cnnc23)cn1 [Example 61, N-((2,3-dihydrobenzofuran-4-yl)methyl)-8-(6-(dimethylamino)pyridin-3-yl)-[1,2,4]triazolo[4,3-c]pyrimidin-5-amine] | 0.175
CN(C)C(=O)c1ccc(-c2cnc(NCc3cccc4c3CCO4)n3cnnc23)cn1 [Example 95, 5-(5-(((2,3-dihydrobenzofuran-4-yl)methyl)amino)-[1,2,4]triazolo[4,3-c]pyrimidin-8-yl)-N,N-dimethylpicolinamide] | 0.158
CCc1ccc(-c2cnc(NCc3c(F)ccc4c3CCO4)n3cnnc23)c(C)n1 [Example 229, 8-(6-ethyl-2-methylpyridin-3-yl)-N-((5-fluoro-2,3-dihydrobenzofuran-4-yl)methyl)-[1,2,4]triazolo[4,3-c]pyrimidin-5-amine] | 0.0027
CN1CCC(S(=O)(=O)c2ccc(-c3cnc(NCc4cccc5occc45)n4cnnc34)cc2)CC1 [Example 220, N-(benzofuran-4-ylmethyl)-8-(4-((1-methylpiperidin-4-yl)sulfonyl)phenyl)-[1,2,4]triazolo[4,3-c]pyrimidin-5-amine] | 0.467
Fc1ccc2c(c1CNc1ncc(-c3ccnn3C3CC3)c3nncn13)CCO2 [Example 192, 8-(1-cyclopropyl-1H-pyrazol-5-yl)-N-((5-fluoro-2,3-dihydrobenzofuran-4-yl)methyl)-[1,2,4]triazolo[4,3-c]pyrimidin-5-amine] | 0.0104
Cc1ccc(-c2cnc(NCc3c(F)ccc4c3CCO4)n3cnnc23)c(C)n1 [Example 167, 8-(2,6-dimethylpyridin-3-yl)-N-((5-fluoro-2,3-dihydrobenzofuran-4-yl)methyl)-[1,2,4]triazolo[4,3-c]pyrimidin-5-amine] | 0.0393
Cc1cnc(C(F)F)cc1-c1cnc(NCc2c(F)ccc3c2CCO3)n2cnnc12 [Example 198, 8-(2-(difluoromethyl)-5-methylpyridin-4-yl)-N-((5-fluoro-2,3-dihydrobenzofuran-4-yl)methyl)-[1,2,4]triazolo[4,3-c]pyrimidin-5-amine] | 0.0078
Cc1nn(C(C)C)cc1-c1cnc(NCc2cccc3c2CCO3)n2cnnc12 [Example 82, N-((2,3-dihydrobenzofuran-4-yl)methyl)-8-(1-isopropyl-3-methyl-1H-pyrazol-4-yl)-[1,2,4]triazolo[4,3-c]pyrimidin-5-amine] | 0.107
COc1ccc(-c2cnc(NCc3cccc4c3CCO4)n3cnnc23)cn1 [Example 21, N-((2,3-dihydrobenzofuran-4-yl)methyl)-8-(6-methoxypyridin-3-yl)-[1,2,4]triazolo[4,3-c]pyrimidin-5-amine] | 0.15
